The record followed here is ChEMBL document CHEMBL5303304, “EUbOPEN Chemogenomics Library - IncuCyte” (2023).

Holding throughout (type): toxicity, cell-based
Data set [1] concerns HEK-293T. The data set can be described thus: Incucyte cell viability with HEK293T. Particulars: human, 10 µM, compound concentration 10 uM.
Data set [2] concerns Fibroblast. Nature of the data set: Incucyte cell viability with human fibroblast. To be noted: 10 µM, compound concentration 10 uM.
Data set [3] concerns U2OS. Nature of the data set: Incucyte cell viability with U2OS. Particulars: human, 10 µM, compound concentration 10 uM.
Further: unitless GR value; below 1 slowed growth and below 0 cell loss.

As to `Cl.O=S(=O)(c1cccc2c(I)cccc12)N1CCCNCC1`, the “Growth Rate” value is listed as -0.39 in data set [1] (6 h, replicate number 1); 0.3 in data set [1] (12 h, replicate number 1); 0.81 in data set [1] (18 h, replicate number 1); 0.89 in data set [1] (24 h, replicate number 1); 0.88 in data set [1] (24 h, replicate number 2); -1 in data set [2] (6 h, replicate number 1). Moreover, the “Growth Rate” value in data set [2] (6 h, replicate number 2) is given as -0.05; in data set [2] (12 h, replicate number 2) it was 0.87; in data set [2] (24 h, replicate number 2), 0.96; in data set [3] (0 h, replicate number 1), -1; in data set [3] (6 h, replicate number 2), 0.86.

As to `CC(Oc1cc(-c2cnn(C3CCNCC3)c2)cnc1N)c1c(Cl)ccc(F)c1Cl` (centres undefined), the “Growth Rate” value was -0.85 in data set [1] (6 h, replicate number 1); -0.51 in data set [1] (6 h, replicate number 2); -0.78 in data set [1] (12 h, replicate number 1); -0.35 in data set [1] (12 h, replicate number 2); -0.49 in data set [1] (18 h, replicate number 1); -0.18 in data set [1] (18 h, replicate number 2). For the same molecule, the “Growth Rate” value is reported as -0.28 in data set [1] (24 h, replicate number 1); -0.11 in data set [1] (24 h, replicate number 2); -0.95 in data set [2] (6 h, replicate number 2); -0.94 in data set [2] (12 h, replicate number 1); -0.64 in data set [2] (12 h, replicate number 2); -0.67 in data set [2] (18 h, replicate number 1). The “Growth Rate” value in data set [2] (18 h, replicate number 2) is recorded as -0.52; in data set [2] (24 h, replicate number 1), -0.22; in data set [2] (24 h, replicate number 2), -0.44; in data set [3] (0 h, replicate number 1), -1; in data set [3] (12 h, replicate number 1), 0.53; in data set [3] (12 h, replicate number 2), 0.65. For the same molecule, the “Growth Rate” value in data set [3] (18 h, replicate number 1) is 0.4; in data set [3] (18 h, replicate number 2), 0.45; in data set [3] (24 h, replicate number 1) it was 0.39; in data set [3] (24 h, replicate number 2), 0.5.

As to `CC(C)(C)c1ccc(-c2coc3ccc(-c4cn[nH]c4)nc23)cc1`, the “Growth Rate” value in data set [1] (6 h, replicate number 1) is recorded as 0.67; in data set [1] (6 h, replicate number 2), 0.37; in data set [1] (12 h, replicate number 2) it was 0.72; in data set [1] (18 h, replicate number 2), 0.95; in data set [1] (24 h, replicate number 2), 0.84; in data set [2] (0 h, replicate number 2), 0.44. Also, the “Growth Rate” value was -0.96 in data set [2] (6 h, replicate number 1); -0.95 in data set [2] (6 h, replicate number 2); -0.62 in data set [2] (12 h, replicate number 2); -0.24 in data set [2] (18 h, replicate number 2); 0.94 in data set [2] (24 h, replicate number 1); -0.11 in data set [2] (24 h, replicate number 2). The “Growth Rate” value in data set [3] (0 h, replicate number 1) is 0.77; in data set [3] (0 h, replicate number 2), -0.87; in data set [3] (12 h, replicate number 1) it was 0.97; in data set [3] (18 h, replicate number 1) it was 0.67; in data set [3] (18 h, replicate number 2), 0.81; in data set [3] (24 h, replicate number 1) it was 0.5. In addition, in data set [3] (24 h, replicate number 2), the “Growth Rate” value worked out at 0.63.

As to `O=C1NCc2ccc3c(-c4cccc(Cl)c4)c[nH]c3c21`, the “Growth Rate” value in data set [1] (6 h, replicate number 1) is recorded as -0.5; in data set [1] (12 h, replicate number 1), -0.49; in data set [1] (12 h, replicate number 2), -0.24; in data set [1] (18 h, replicate number 1) it was -0.21; in data set [1] (18 h, replicate number 2), -0.13; in data set [1] (24 h, replicate number 1), -0.06. Moreover, the “Growth Rate” value in data set [1] (24 h, replicate number 2) is given as -0.07; in data set [2] (6 h, replicate number 2) it was -1; in data set [2] (12 h, replicate number 1) it was -1; in data set [2] (12 h, replicate number 2), -0.89; in data set [2] (18 h, replicate number 1) it was -0.89; in data set [2] (18 h, replicate number 2), -0.75. Besides, the “Growth Rate” value is -0.46 in data set [2] (24 h, replicate number 1); -0.57 in data set [2] (24 h, replicate number 2); -0.34 in data set [3] (6 h, replicate number 1); 0.05 in data set [3] (6 h, replicate number 2); -0.32 in data set [3] (12 h, replicate number 1); -0.15 in data set [3] (12 h, replicate number 2). Moreover, the “Growth Rate” value was -0.16 in data set [3] (18 h, replicate number 1); -0.11 in data set [3] (18 h, replicate number 2); -0.1 in data set [3] (24 h, replicate number 1); -0.06 in data set [3] (24 h, replicate number 2).

`CNc1nc(NCc2ncccn2)c2c(-c3ccc4ncccc4c3)c[nH]c2n1`: the “Growth Rate” value in data set [1] (6 h, replicate number 1) came to 0.58; in data set [1] (6 h, replicate number 2), 0.42; in data set [1] (12 h, replicate number 1), 0.9; in data set [1] (12 h, replicate number 2), 0.84; in data set [1] (18 h, replicate number 1), 0.83; in data set [1] (18 h, replicate number 2), 0.8. In addition, the “Growth Rate” value in data set [1] (24 h, replicate number 1) was 0.84; in data set [1] (24 h, replicate number 2) it was 0.86; in data set [2] (0 h, replicate number 1), -0.08; in data set [2] (0 h, replicate number 2), -0.54; in data set [2] (12 h, replicate number 1), -0.94; in data set [2] (18 h, replicate number 1) it was 0.83. Besides, the “Growth Rate” value in data set [3] (6 h, replicate number 1) was 0.78; in data set [3] (6 h, replicate number 2), 0.82; in data set [3] (12 h, replicate number 2) it was 0.7; in data set [3] (18 h, replicate number 1), 0.84; in data set [3] (18 h, replicate number 2), 0.85; in data set [3] (24 h, replicate number 1), 0.94. For the same molecule, the “Growth Rate” value in data set [3] (24 h, replicate number 2) came out at 0.86.

As for `NC(=O)c1cc2c(-c3ccc(C(=O)NCc4ccnc(Cl)c4)s3)cccc2s1`, the “Growth Rate” value was -0.51 in data set [1] (6 h, replicate number 1); -0.71 in data set [1] (6 h, replicate number 2); -0.4 in data set [1] (12 h, replicate number 1); -0.32 in data set [1] (12 h, replicate number 2); -0.29 in data set [1] (18 h, replicate number 1); -0.17 in data set [1] (18 h, replicate number 2). The “Growth Rate” value in data set [1] (24 h, replicate number 1) is reported as -0.23; in data set [1] (24 h, replicate number 2), -0.09; in data set [2] (6 h, replicate number 1), -1; in data set [2] (6 h, replicate number 2), -0.95; in data set [2] (12 h, replicate number 2), -0.43; in data set [2] (18 h, replicate number 2), -0.25. In addition, the “Growth Rate” value is -0.11 in data set [2] (24 h, replicate number 2); -0.34 in data set [3] (0 h, replicate number 1); 0.46 in data set [3] (0 h, replicate number 2); -0.24 in data set [3] (6 h, replicate number 1); -0.51 in data set [3] (6 h, replicate number 2); 0.05 in data set [3] (12 h, replicate number 1). Also, the “Growth Rate” value in data set [3] (12 h, replicate number 2) is on record as -0.23; in data set [3] (18 h, replicate number 1), 0; in data set [3] (18 h, replicate number 2), -0.03; in data set [3] (24 h, replicate number 1), 0.05; in data set [3] (24 h, replicate number 2) it was 0.03.

Regarding `COc1cc(C(=O)N2CC[C@@H](O)[C@@H](N)C2)cc2nc(-c3cc4ccccc4n3CC3CC3)n(C)c12.Cl`, the “Growth Rate” value is 0.46 in data set [1] (6 h, replicate number 1); -0.12 in data set [1] (6 h, replicate number 2); 0.73 in data set [1] (12 h, replicate number 1); 0.39 in data set [1] (12 h, replicate number 2); 0.82 in data set [1] (18 h, replicate number 1); 0.3 in data set [1] (18 h, replicate number 2). In addition, the “Growth Rate” value was 0.58 in data set [1] (24 h, replicate number 1); 0.27 in data set [1] (24 h, replicate number 2); -1 in data set [2] (6 h, replicate number 1); -0.02 in data set [2] (6 h, replicate number 2); 0.16 in data set [2] (12 h, replicate number 2); 0.2 in data set [2] (18 h, replicate number 2). In addition, the “Growth Rate” value in data set [2] (24 h, replicate number 2) is given as 0.27; in data set [3] (0 h, replicate number 1), -0.93.

`CC(C)n1cc(-c2ccc(N3CCN(C)CC3)c(NC(=O)c3ccc(-c4ccncc4)o3)c2)cn1`: the “Growth Rate” value in data set [1] (6 h, replicate number 1) is recorded as -0.65; in data set [1] (6 h, replicate number 2), -0.31; in data set [1] (12 h, replicate number 1), -0.36; in data set [1] (12 h, replicate number 2) it was -0.01; in data set [1] (18 h, replicate number 1) it was -0.19; in data set [1] (18 h, replicate number 2), 0.15. For the same molecule, the “Growth Rate” value in data set [1] (24 h, replicate number 1) is listed as -0.08; in data set [1] (24 h, replicate number 2), 0.31; in data set [2] (0 h, replicate number 2) it was -0.35; in data set [2] (6 h, replicate number 1), -0.97; in data set [2] (6 h, replicate number 2), 0.11; in data set [2] (12 h, replicate number 2), 0.45. The “Growth Rate” value is 0.67 in data set [2] (18 h, replicate number 2); 0.65 in data set [2] (24 h, replicate number 2); -0.65 in data set [3] (0 h, replicate number 1); -0.8 in data set [3] (0 h, replicate number 2); 0.96 in data set [3] (12 h, replicate number 1).

Regarding `COc1ccc2nc3ccc(OC)cc3c(SCCCN)c2c1.Cl`, the “Growth Rate” value is -0.94 in data set [1] (6 h, replicate number 1); 0.26 in data set [1] (6 h, replicate number 2); -0.75 in data set [1] (12 h, replicate number 1); 0.76 in data set [1] (12 h, replicate number 2); -0.57 in data set [1] (18 h, replicate number 1); 0.45 in data set [1] (18 h, replicate number 2). In addition, the “Growth Rate” value is reported as -0.41 in data set [1] (24 h, replicate number 1); 0.33 in data set [1] (24 h, replicate number 2); -0.39 in data set [2] (0 h, replicate number 2); -1 in data set [2] (6 h, replicate number 1); 0.89 in data set [2] (24 h, replicate number 2); -0.96 in data set [3] (0 h, replicate number 2). Moreover, the “Growth Rate” value stood at 0.99 in data set [3] (18 h, replicate number 2); 0.86 in data set [3] (24 h, replicate number 1); 0.85 in data set [3] (24 h, replicate number 2).

Regarding `CCn1c(-c2nc3cc(C(=O)N4CCCC(N)C4)ccc3n2C)cc2ccccc21.Cl` (centres undefined), the “Growth Rate” value in data set [1] (6 h, replicate number 1) was 0.45; in data set [1] (6 h, replicate number 2), 0.09; in data set [1] (12 h, replicate number 2), 0.8; in data set [1] (18 h, replicate number 2) it was 0.89; in data set [1] (24 h, replicate number 2) it was 0.87; in data set [2] (6 h, replicate number 1), -0.88. Besides, the “Growth Rate” value in data set [2] (6 h, replicate number 2) is recorded as 0.59; in data set [2] (12 h, replicate number 2), 0.96; in data set [2] (18 h, replicate number 2) it was 0.78; in data set [2] (24 h, replicate number 2) it was 0.77; in data set [3] (0 h, replicate number 1) it was -0.07; in data set [3] (0 h, replicate number 2), -0.69.
